Values of other authors in patent US20050129762A1, “Extended release pharmaceutical dosage form” (Wyeth, priority 2003, published 2005).
Structures can show the parent of a compound that is named as a salt.

Details: plural daily dosing regimen, immediate release tablets

Structure (SMILES): COc1ccc(C(CN(C)C)C2(O)CCCCC2)cc1 (centres unmarked) [venlafaxine hydrochloride, 1-[2-(dimethylamino)-1-(4-methoxyphenyl)ethyl]-cyclohexanol]
- Vomiting, share of patients: about seventeen
- nausea, share of patients under treatment: about forty five
